Measured values: US6440468B1, “Method for obtaining apolar and polar extracts of curcuma and applications thereof” (A.S.A.C. Pharmaceutical International, A.I.E., priority 1994, dated 2002)

Assay: Thermal stability of curcuminoids in the apolar fraction
Assay type: physicochemical
Conditions: stabilized as of 24-48 hours of exposure
Description: Initially, a greater degradation is produced which is stabilized as of 24-48 hours of exposure. Degradation is kept at 2% for temperatures lower than 50° C. and at 4% at 80° C.

thermal degradation of curcuminoids (80° C): 4% | thermal degradation of curcuminoids (temperatures lower than 50° C): 2%
Structure (SMILES): COc1cc(/C=C/C(=O)CC(=O)/C=C/c2ccc(O)c(OC)c2)ccc1O [curcumin, curcumin (dipheruloylmethane)]
